# Data as given in US11028079B2 (ConverGene LLC, priority 2015, dated 2021).
# Molecular target: T1, BRD4 bromodomains (Homo sapiens, UniProt O60885)
# T1 construct: fused on or other part: T7 phage capsid protein (phage-display fusion; the phage DNA is read out by qPCR)
# Test: BROMOscan bromodomain competition binding assay (DiscoveRx)
# Conditions: Kd from 11 compound concentrations ranging from 0 to 10 μM, read-out: BROMOscan Relative Activity
# In short: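 Compounds in 0.1% DMSO/0.9% MEG competed with a solid-phase acetylated peptide for T7 phage-fused BRD4 bromodomains, with the retained bromodomain measured by qPCR.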
row,Structure (SMILES),Kd [nM]
1,"Cc1noc(C)c1-c1ccc2nc(C(=O)NCc3ccc(Cl)nc3)nc(NCc3cccc(Cl)c3)c2c1 [Example 203, 4-((3-chlorobenzyl)amino)-N-((6-chloropyridin-3-yl)methyl)-6-(3,5-dimethylisoxazol-4-yl)quinazoline-2-carboxamide]",< 500
2,"Cc1noc(C)c1-c1ccc2nc(N3CCc4c(cnn4C)C3)nc(N3CCOC[C@@H]3c3ccccc3)c2c1 [Example 289, (S)-4-(6-(3,5-dimethylisoxazol-4-yl)-2-(1-methyl-1,4,6,7-tetrahydro-5H-pyrazolo[4,3-c]pyridin-5-yl)quinazolin-4-yl)-3-phenylmorpholine]",< 500
3,"Cc1noc(C)c1-c1ccc2nc(N3CCN(C(=O)CN(C)C)CC3)nc(NCc3cccc(Cl)c3)c2c1 [Example 37, 1-(4-(4-((3-chlorobenzyl)amino)-6-(3,5-dimethylisoxazol-4-yl)quinazolin-2-yl)piperazin-1-yl)-2-(dimethylamino)ethanone]",< 500
4,"Cc1noc(C)c1-c1ccc2nc(N3CCN(S(C)(=O)=O)CC3)nc(N3CCOC[C@H]3c3ccccc3)c2c1 [Example 268, (R)-4-(6-(3,5-dimethylisoxazol-4-yl)-2-(4-(methylsulfonyl)piperazin-1-yl)quinazolin-4-yl)-3-phenylmorpholine]",< 500
5,"Cc1noc(C)c1-c1ccc2nc(-c3ccc(CO)nc3)nc(NCc3cccc(Cl)c3)c2c1 [Example 63, (5-(4-((3-chlorobenzyl)amino)-6-(3,5-dimethylisoxazol-4-yl)quinazolin-2-yl)pyridin-2-yl)methanol]",< 500
6,"CC(=O)N1CCN(c2nc(NCc3cncc(Cl)c3)c3cc(-c4c(C)noc4C)ccc3n2)CC1 [Example 195, 1-(4-(4-(((5-chloropyridin-3-yl)methyl)amino)-6-(3,5-dimethylisoxazol-4-yl)quinazolin-2-yl)piperazin-1-yl)ethanone]",< 500
7,"Cc1noc(C)c1-c1ccc2nc(N3CCN(CC(C)(C)O)CC3)nc(NCc3cncc(Cl)c3)c2c1 [Example 136, 1-(4-(4-(((5-chloropyridin-3-yl)methyl)amino)-6-(3,5-dimethylisoxazol-4-yl)quinazolin-2-yl)piperazin-1-yl)-2-methylpropan-2-ol]",< 500
8,"Cc1noc(C)c1-c1ccc2nc(-c3cnn(CC(N)=O)c3)nc(NCc3cccc(Cl)c3)c2c1 [Example 50, 2-(4-(4-((3-chlorobenzyl)amino)-6-(3,5-dimethylisoxazol-4-yl)quinazolin-2-yl)-1H-pyrazol-1-yl)acetamide]",< 500
9,"Cc1noc(C)c1-c1ccc2nc(N3CCN(C(=O)CO)CC3)nc(N3CCOC[C@@H]3c3ccccc3)c2c1 [Example 305, (S)-1-(4-(6-(3,5-dimethylisoxazol-4-yl)-4-(3-phenylmorpholino)quinazolin-2-yl)piperazin-1-yl)-2-hydroxyethan-1-one]",< 500
10,"Cc1noc(C)c1-c1ccc2nc(N3CCN(CCN(C)C)CC3)nc(NCc3cccnc3)c2c1 [Example 80, 2-(4-(2-(dimethylamino)ethyl)piperazin-1-yl)-6-(3,5-dimethylisoxazol-4-yl)-N-(pyridin-3-ylmethyl)quinazolin-4-amine]",< 500
11,"Cc1noc(C)c1-c1ccc2nc(N3CCCN(CCN(C)C)CC3)nc(NCc3cccc(Cl)c3)c2c1 [Example 32, N-(3-chlorobenzyl)-2-(4-(2-(dimethylamino)ethyl)-1,4-diazepan-1-yl)-6-(3,5-dimethylisoxazol-4-yl)quinazolin-4-amine]",< 500
12,"CN(C)CCN1CCN(c2nc(NCc3cccc(Cl)c3)c3cc(-c4ccc(O)nc4)ccc3n2)CC1 [Example 67, 5-(4-((3-chlorobenzyl)amino)-2-(4-(2-(dimethylamino)ethyl)piperazin-1-yl)quinazolin-6-yl)pyridin-2-ol]",500 to 5000
13,"Cc1noc(C)c1-c1ccc2nc(C(=O)N3CCC4(CC3)CC(O)C4)nc(N3CCOC[C@@H]3c3ccccc3)c2c1 [Example 316, (S)-(6-(3,5-dimethylisoxazol-4-yl)-4-(3-phenylmorpholino)quinazolin-2-yl)(2-hydroxy-7-azaspiro[3.5]nonan-7-yl)methanone]",500 to 5000
14,"Cn1cc(-c2ccc3nc(N4CCN(CC(N)=O)CC4)nc(NCc4cccc(Cl)c4)c3c2)ccc1=O [Example 108, 2-(4-(4-((3-chlorobenzyl)amino)-6-(1-methyl-6-oxo-1,6-dihydropyridin-3-yl)quinazolin-2-yl)piperazin-1-yl)acetamide]",< 500
15,"Cc1noc(C)c1-c1ccc2nc(C(=O)NCc3ccnc(Cl)c3)nc(NCc3cccc(Cl)c3)c2c1 [Example 202, 4-((3-chlorobenzyl)amino)-N-((2-chloropyridin-4-yl)methyl)-6-(3,5-dimethylisoxazol-4-yl)quinazoline-2-carboxamide]",< 500
16,"Cc1noc(C)c1-c1ccc2nc(-c3cnn(CC(C)(C)O)c3)nc(N3CCN(S(C)(=O)=O)C[C@@H]3c3ccccc3)c2c1 [Example 310, (S)-1-(4-(6-(3,5-dimethylisoxazol-4-yl)-4-(4-(methylsulfonyl)-2-phenylpiperazin-1-yl)quinazolin-2-yl)-1H-pyrazol-1-yl)-2-methylpropan-2-ol]",< 500
17,"Cc1noc(C)c1-c1ccc2ncnc(N3CCC(C(=O)O)CC3)c2c1 [Example 261, 1-(6-(3,5-dimethylisoxazol-4-yl)quinazolin-4-yl)piperidine-4-carboxylic Acid]",500 to 5000
18,"CN(C)CCN1CCN(c2nc(NCc3cccc(Cl)c3)c3cc(-c4cn[nH]c4)ccc3n2)CC1 [Example 64, N-(3-chlorobenzyl)-2-(4-(2-(dimethylamino)ethyl)piperazin-1-yl)-6-(1H-pyrazol-4-yl)quinazolin-4-amine]",> 5000
19,"Cc1noc(C)c1-c1ccc2nc(-c3c(C)noc3C)cc(NCc3cccc(Cl)c3)c2c1 [Example 14, N-(3-chlorobenzyl)-2,6-bis(3,5-dimethylisoxazol-4-yl)quinolin-4-amine]",500 to 5000
20,"Cc1noc(C)c1-c1ccc2nc(N3CCC(CO)CC3)nc(NCc3cccc(Cl)c3)c2c1 [Example 23, (1-(4-((3-chlorobenzyl)amino)-6-(3,5-dimethylisoxazol-4-yl)quinazolin-2-yl)piperidin-4-yl)methanol]",500 to 5000
21,"Cc1noc(C)c1-c1ccc2nc(N3CCN(CCN(C)C)CC3)nc(N3CCC3c3ccccc3)c2c1 (stereo not drawn) [Example 179, 2-(4-(6-(3,5-dimethylisoxazol-4-yl)-4-(2-phenylazetidin-1-yl)quinazolin-2-yl)piperazin-1-yl)-N,N-dimethylethanamine]",< 500
22,"CN(C)CCN1CCN(c2nc(NCc3cccc(Cl)c3)c3cc(-c4ccnc(O)c4)ccc3n2)CC1 [Example 96, 4-(4-((3-chlorobenzyl)amino)-2-(4-(2-(dimethylamino)ethyl)piperazin-1-yl)quinazolin-6-yl)pyridin-2-ol]",> 5000
23,"CN(C)CCN1CCN(c2nc(NCc3cccc(Cl)c3)c3cc(-c4ccc(=O)n(C)c4)ccc3n2)CC1 [Example 66, 5-(4-((3-chlorobenzyl)amino)-2-(4-(2-(dimethylamino)ethyl)piperazin-1-yl)quinazolin-6-yl)-1-methylpyridin-2(1H)-one]",< 500
24,"Cc1cnccc1CNC(=O)c1nc(NCc2cccc(Cl)c2)c2cc(-c3c(C)noc3C)ccc2n1 [Example 217, 4-((3-chlorobenzyl)amino)-6-(3,5-dimethylisoxazol-4-yl)-N-((3-methylpyridin-4-yl)methyl)quinazoline-2-carboxamide]",< 500
